For one data set, the system named is MCF-7 cells. The data set can be described thus: Wound healing assay. To be noted: 8 μM, 0, 24, 48 h, compared to control group. It counts as cell-based, human. The method, then:
MCF-7 cells were seeded in six-well plates at a density of […] and incubated at 37°C to achieve 100 percent confluence. After starving the cells for 24 h, a wound (cell-free) was drawn across the center of the well using the tip of a 1 ml plastic pipette. Wells were cleaned twice with PBS before being treated for 48 h with BoA2C (8 μM). At 0 h, 24 h, and 48 h, cells were viewed and photographed in randomly selected fields using an inverted light microscope (Nikon).

The test system of a further data set is Hela. The data set can be described thus: MTT assay, Hela cells. To be noted: Homo sapiens, HeLa, 72 h incubation, read-out: Half maximal inhibitory concentration (IC50) values, Hela. The format is cell-based, human. The source says: (§1) The human hepatocellular carcinoma cell line (HepG2), human hepatocellular carcinoma cell line (Bel-7402), human cervical cancer cell line (Hela), human breast adenocarcinoma cell line (MCF-7) and Madin-Darby canine kidney cell line (MDCK) were obtained from the Chinese Academy of Medical Sciences and Peking Union Medical College. Cultures were maintained as monolayer in RPMI-1640/DMEM supplemented with 10% (v/v) fetal bovine serum (FBS) and 1% (v/v) penicillin/streptomycin (Thermo Technologies, New York, NY, United States) under a humidified atmosphere containing 5% CO2 at 37°C. The BoA derivatives and positive control drugs (BoA and DDP) under study were dissolved in DMSO (Sigma, St. Louis, MO, United States) and added at required concentrations to the cell culture. Cells incubated without the preparations served as the control.
(§2) The antitumor activity was assessed by MTT assay, as previously reported ([Fang et al., 2018]). Each tested compound and positive control drugs were dissolved in DMSO and diluted with the medium to the test concentrations, and the final concentration of DMSO in the culture medium was controlled at less than 0.5% (v/v). Briefly, cells were cultured at 37°C and dispersed in replicates in 96-well plates with HepG2, Bel-7402, HeLa, MCF-7 and MDCK for 24 h. Fresh medium along with compounds (BoAA-BoAE, BoA2A-BoA2G, BoA3A-BoA3G, BoA4A-BoA4G) at different concentrations was then added to individual wells and incubated for 72 h, with BoA and DDP as the positive control. Experiments on FXR expression were separated into three groups: Control (PBS), BoA2C (8 μM), and BoA2C (8 μM) + DY268 (10 μM) ([Giordano et al., 2016]), with three repeating wells in each. In separate wells, BoA2C and DY268 were introduced and cultured for 72 h. After 72 h, the cell was incubated with MTT solution (0.5 mg/ml) for an additional 4 h at 37°C. The produced formazan crystals were solubilized with DMSO, and the optical density of solution was measured at 570 nm using a plate reader (BIORAD 550 spectrophotometer, Bio-rad Life Science Development Ltd., Beijing, China). Wells without drugs were used to be blanks. The IC50 values were defined as the concentration of compounds that produced a 50% proliferation inhibition of surviving cells and calculated using the Graph Pad Prism 5. The inhibitory rate was calculated in the following Equation 1, where OD is the optical density: % inhibition=[1−(OD Sample group−OD Blank group)/(OD Control group−OD Blank group)]×100% (1)
On the technique in general: Formazan colour is commonly taken as a measure of viable cells.

The subject of a further data set is HepG2. The data set can be described thus: MTT assay, HepG2 cells. It counts as cell-based, human. To be noted: Homo sapiens, HepG2, 72 h incubation, read-out: Half maximal inhibitory concentration (IC50) values, HepG2.
Description: as §1, §2

The test system of another data set is MDCK. Nature of the data set: MTT assay, MDCK normal cell line. It counts as cell-based, canine.
Description: as §1, §2

Another data set has as its system Bel-7402. Nature of the data set: MTT assay, Bel-7402 cells. The format is cell-based, human. To be noted: Homo sapiens, Bel-7402, 72 h incubation, read-out: Half maximal inhibitory concentration (IC50) values, Bel-7402.
Description: as §1, §2

On to `C=C(C)[C@@H]1CC[C@]2(C(=O)OCCOC(=O)c3cnc(C)cn3)CC[C@]3(C)[C@H](CC[C@@H]4[C@@]5(C)CCC(=O)C(C)(C)[C@@H]5CC[C@]43C)[C@@H]12` [BoA2C, (5-Methylpyrazin-2-acyloxy)-ethyl-3-oxolup-20(29)-en-28-oate], for which the “migration of cells in the scratch wound” value in the data set with MCF-7 cells was “obviously reduced the migration of MCF-7 cells”. Also, the IC50 is 15.6 ± 2.63 µM in the data set with Hela; 7.46 ± 1.43 µM in the data set on HepG2; more than 30 µM in the data set on MDCK (Canis lupus familiaris, MDCK, 72 h incubation, normal cell line, read-out: Half maximal inhibitory concentration (IC50) values, MDCK); 3.65 ± 0.43 µM with Bel-7402. Besides, the “cytotoxicity on MDCK cell line compared with DDP (cisplatin)” value with MDCK (72 h) is listed as “lower cytotoxicity on MDCK cell line than cisplatin”.

The record behind these values is paper PMC9486541, “Design, synthesis and cytotoxic evaluation of novel betulonic acid-diazine derivatives as potential antitumor agents” (Frontiers in Chemistry, 2022).
